Results from patent US20110112187A1, “Use Of Tranilast And Derivatives Thereof For The Therapy Of Neurological Conditions” (priority 2007, published 2011).

What was measured:
neural stem cells = assay: In vitro differentiation assay on adult neuronal stem cells (beta-III-tubulin promoter dual luciferase reporter); assay type: cell-based, rat; settings: 48 hrs; concentration ranges within 0.01 to 100 μM; versus sham treated cells
Text: The neuroregenerative effect of the compounds according to the present invention can be assayed in vitro by measuring their stimulation of the differentiation of neuronal stem cells. Therefore, adult neuronal stem cells have to be isolated and subsequently cultivated in a suitable culture medium. After several passages in vitro the stem cells have to be co-transfected with a DNA construct coding for two discriminable reporter proteins one of them under the control of a constitutive promoter and the other under the control of a beta-III-tubulin promoter. The beta-III-tubulin promoter is induced during the process of neuronal stem cell differentiation; therefore the reporter protein under the control of this promoter serves as a marker for the stem cell differentiation in such an in vitro dual reporter assay (Schneider et al., J Clin Investigation 2005; 115:2083-2098). The person skilled in the art knows several suitable constitutive promoters such as the SV40-promoter, the TK-promoter, or the CMV-promoter. As discriminable reporter proteins for such a dual reporter assay one can use discriminable luciferases such as firefly luciferase and Renilla luciferase. The transfected cells have to be incubated with the test compound and with positive and negative controls for normalization and background correction. As a positive control compound one can use retinoic acid (Guan et al., Cell Tissue Res. 2001; 305:171-176; Jacobs et al., Proc. Natl. Acad. Sci. USA 2006; 103:3902-3907), a suitable negative control is the sham treatment of the cells. The neroregenerative activity of the test compound is determined as the ratio of the signal of the beta-III-tubulin promoter controlled reporter versus the signal of the constitutively expressed reporter and is expressed as fold from the control. This assay is suitable to assess the neuroregenerative activity of tranilast and derivatives thereof, but also can be used to screen for other potential neuroregenerative compounds. Preferably, such a screening can be used to test compounds which are already known to be suitable as a medicament in terms of its toxicology, bioavailability, solubility, stability etc.
Neural stem cells were isolated from the subventricular zone of 4 week-old male Wistar rats as described (Maurer et al, Proteome Sci. 2003; 1:4). Cells were cultivated in Neurobasal medium (Invitrogen) supplemented with B27 (Invitrogen), 2 mM L-glutamine, 100 units/ml penicillin, 100 units/ml streptomycin, 20 ng/ml […] growth factor (EGF), 20 ng/ml fibroblast growth factor-2 (FGF-2), and […] heparin. Once a week the neural stem cells were passaged and experiments were performed after 4 weeks in vitro. For DNA transfection, the cells were dissociated and plated on poly-L-ornithin/laminin-coated 96-well plates at a density of 50.000 cells/well. Cotransfection with the pGL3-p-βIII-tubulin vector (100 ng/well) and the pRL SV40 vector (100 ng/well) was carried out according to the FuGene6 Transfection protocol (Roche). The pRL SV40 vector (Promega) served as an internal control vector.
To amplify the class III β-tubulin gene promoter (fragment −450-+54), rat genomic DNA was used as a template for PCR (Dennis et al., Gene 2002; 294:269-277). The amplified fragment was inserted into the Mlu I/Xho I site of the pGL3-Basic firefly luciferase reporter vector (Promega) to generate the pGL3-p-βIII-tubulin experimental vector.
After overnight incubation, the plate was decanted and given in 8-fold replicates fresh medium containing tranilast (Sigma) or vehicle. As a positive control for in vitro differentiation, stem cells were treated by adding 1 μM retinoic acid (Sigma) to the medium missing the mitogens.
After 48 hrs, the cells were harvested to prepare the cellular extracts for luciferase assay following the directions of the manufacturer (Promega). […]

SH-SY5Y neuronal cells [1] = assay: In vitro anti-apoptosis assay (Caspase-Glo 3/7, staurosporine induced apoptosis); assay type: cell-based, human; settings: for anti-apoptotic effect: reduction of the staurosporine induced apoptosis: co-incubation with staurosporine
Method: Neuroprotection is attainable via the inhibition of apoptosis of affected neurons. The anti-apoptotic effect of tranilast and its derivatives can be assayed in vitro by measuring the caspase-3 and caspase-7 activities. These members of the cysteine aspartic acid-specific protease (caspase) family play key effector roles in apoptosis in mammalian cells. Cortical neurons have to be isolated and subsequently cultivated in a suitable culture medium. The cells have to be incubated with the test compound in the presence of an apoptotic substance such as staurosporine. Parallel approaches with staurosporine alone and sham treatment of the cells serve as […] controls. The assay allows evaluating whether the test compound can compensate either completely or partially for the apoptotic effect of staurosporine. This assay is suitable to assess the neuroprotective activity of tranilast and derivatives thereof, but also can be used to screen for other potential neuroprotective compounds. Preferably, such a screening can be used to test compounds which are already known to be suitable as a medicament in terms of its toxicology, bioavailability, solubility, stability etc.
The neuroprotective effect of compounds can be assayed in vitro by measuring caspase-3 and caspase-7 activities. These members of the cysteine aspartic acid-specific protease (caspase) family play a key effector role in apoptosis in mammalian cells.
The human neuroblastoma cell-line SH-SY5Y (American Type Culture Collection) maintained in DMEM with high glucose supplemented with 20% FBS was used for the apoptosis assay. Alternatively one can analyse the apoptosis of primary cortical neurons which can be isolated from E18 rats and subsequently cultivated in suitable culture medium. 2.5×10^4 SH-SY5Y cells were seeded in 96-well plates and stimulated 24 h later with tranilast or vehicle in the presence of the apoptosis inducing compound staurosporine (0.5 μM, Calbiochem). After 5 h incubation at 37° C., caspase-Glo 3/7 reagent (Promega) containing luciferase and luminogenic substrate was added to the cells. The cleavage of the substrate by caspase-3 and caspase-7 was detected 30 min later using a luminometer (Berthold Technologies, Mithras LB 940). The Luminescence which is proportional to the amount of caspase activity serves as a measure for the apoptosis of the treated neurons. Tranilast was tested in a range from 0.8 μM to 100 μM final concentration.
Analogously to Example 3, various derivatives of tranilast (N-(3′,4′-methylenedioxycinnamoyl)-anthranilic acid (FIG. 2a (ChemBridge Corporation)), 2-(3′,4′-dimethoxycinnamoylamino)-toluene (FIG. 2b (ChemBridge Corporation)), N-cinnamoyl-anthranilic acid (FIG. 2c (ChemBridge Corporation)), and 2-(3′,4′-dimethoxycinnamoylamino)-anisole (FIG. 2d (Ambinter SARL))) have been analysed for their anti-apoptotic activity. The SH-SY5Y cells have been incubated with these derivatives (1 μM) either alone or in the presence of staurosporine (0.5 μM). Incubation with staurosporine (0.5 μM) alone served as positive control and incubation with vehicle served as negative control. In the case of 3-(4′-chlorocinnamoylamino)-anisole (FIG. 2e (Sigma)) the SH-SY5Y cells have been incubated with this derivative (1 μM) either alone or in the presence of staurosporine […]. Accordingly, incubation with staurosporine […] alone served as positive control and incubation with vehicle served as negative control. The degree of apoptosis relative to the staurosporine control is shown in FIG. 4 a (vehicle (sham): 9% staurosporine (SP): 100%; tranilast: 8%; tranilast plus staurosporine: 75%; derivative A: 3%; derivative A plus staurosporine: 27%; derivative B: 7%; derivative B plus staurosporine: 79%; derivative C: 2%; derivative C plus staurosporine: 20%; derivative D: 7%; derivative D plus staurosporine: 80%) and FIG. 4 b (vehicle (sham): 13%; staurosporine: 100%; derivative E: 6%; derivative E plus staurosporine: 25%).

SH-SY5Y neuronal cells [2] = assay: In vitro viability assay (constitutive Renilla luciferase reporter); assay type: cell-based, human; settings: 0.8 μM to 50 μM, 5 h
Method: The viability assay allows for further assessment of test compounds regarding their effect on cells such as neurons. Therefore, a stably transfected cell line (e.g. SH-SY5Y cells) with a reporter construct (e.g. a luciferase construct) has to be incubated with the test compound and in parallel with positive and negative controls (e.g. staurosporine and sham, respectively). Subsequently, the signal generated by the reporter construct serves as a readout for the viability of the cells in the presence of the test compound. The assay enables the evaluation of potential neurotoxic effects of the test compound itself. […]
SH-SY5Y neuronal cells stably transfected with a Renilla luciferase construct under the SV40 promoter were seeded in 96-well plates at a density of 2.5×10^4 cells per well. […] The Renilla luciferase activity was measured 5 h later using a luminometer (Berthold Technologies, Mithras LB 940). […]
Analogously to Example 5, various derivatives of tranilast (N-(3′,4′-methylenedioxycinnamoyl)-anthranilic acid (FIG. 2a (ChemBridge Corporation)), 2-(3′,4′-dimethoxycinnamoylamino)-toluene (FIG. 2b (ChemBridge Corporation)), N-cinnamoyl-anthranilic acid (FIG. 2c (ChemBridge Corporation)), and 2-(3′,4′-dimethoxycinnamoylamino)-anisole (FIG. 2d (Ambinter SARL))) have been analysed for their effect on the viability of neuronal cells. […]

[3] = compound 1 μM alone, FIG. 4a (control staurosporine 0.5 μM)
[4] = compound 1 μM plus staurosporine 0.5 μM, FIG. 4a

O=C(C=Cc1ccccc1)Nc1ccccc1C(=O)O [derivative C, N-cinnamoyl-anthranilic acid]
differentiation of neural stem cells to neurons (relative induction of the class III β-tubulin gene promoter controlled luciferase signal) (neural stem cells): significantly stimulates the differentiation of neural stem cells to neurons in a dose dependent manner | degree of apoptosis relative to the staurosporine control (SH-SY5Y neuronal cells [1]; [3]): 2% | degree of apoptosis relative to the staurosporine control (SH-SY5Y neuronal cells [1]; [4]): 20%

COc1cccc(NC(=O)C=Cc2ccc(Cl)cc2)c1 [derivative E, 3-(4′-chlorocinnamoylamino)-anisole]
differentiation of neural stem cells to neurons (relative induction of the class III β-tubulin gene promoter controlled luciferase signal) (neural stem cells): significantly stimulates the differentiation of neural stem cells to neurons in a dose dependent manner | anti-apoptotic effect: reduction of the staurosporine induced apoptosis (SH-SY5Y neuronal cells [1]): significant reduction of the staurosporine induced apoptosis | degree of apoptosis relative to the staurosporine control (SH-SY5Y neuronal cells [1]; compound 1 μM alone, FIG. 4b (control staurosporine 0.1 μM)): 6% | degree of apoptosis relative to the staurosporine control (SH-SY5Y neuronal cells [1]; compound 1 μM plus staurosporine (1 μM printed, 0.1 μM elsewhere in the source), FIG. 4b): 25%

COc1ccc(/C=C/C(=O)Nc2ccccc2C(=O)O)cc1OC [tranilast, 2-((3-(3,4-dimethoxyphenyl)-1-oxo-2-propenyl)amino)benzoic acid]
effect on the viability of neuronal cells (Renilla luciferase activity) (SH-SY5Y neuronal cells [2]): did not show any significant effect on the viability of the neuronal cells | differentiation of neural stem cells to neurons (relative induction of the class III β-tubulin gene promoter controlled luciferase signal) (neural stem cells): significantly stimulates the differentiation of neural stem cells to neurons | apoptosis (caspase-3/7 luminescence) relative to staurosporine (SH-SY5Y neuronal cells [1]; 0.8 μM tranilast plus 0.5 μM staurosporine, 5 h): 84% | apoptosis (caspase-3/7 luminescence) relative to staurosporine (SH-SY5Y neuronal cells [1]; 1.6 μM tranilast plus 0.5 μM staurosporine, 5 h): 74% | apoptosis (caspase-3/7 luminescence) relative to staurosporine (SH-SY5Y neuronal cells [1]; 3.1 μM tranilast plus 0.5 μM staurosporine, 5 h): 76% | apoptosis (caspase-3/7 luminescence) relative to staurosporine (SH-SY5Y neuronal cells [1]; 6.3 μM tranilast plus 0.5 μM staurosporine, 5 h): 74% | apoptosis (caspase-3/7 luminescence) relative to staurosporine (SH-SY5Y neuronal cells [1]; 12.5 μM tranilast plus 0.5 μM staurosporine, 5 h): 58% | apoptosis (caspase-3/7 luminescence) relative to staurosporine (SH-SY5Y neuronal cells [1]; 25 μM tranilast plus 0.5 μM staurosporine, 5 h): 46% | apoptosis (caspase-3/7 luminescence) relative to staurosporine (SH-SY5Y neuronal cells [1]; 50 μM tranilast plus 0.5 μM staurosporine, 5 h): 30% | apoptosis (caspase-3/7 luminescence) relative to staurosporine (SH-SY5Y neuronal cells [1]; 100 μM tranilast plus 0.5 μM staurosporine, 5 h): 15% | anti-apoptotic effect: reduction of the staurosporine induced apoptosis (SH-SY5Y neuronal cells [1]): significant reduction of the staurosporine induced apoptosis | degree of apoptosis relative to the staurosporine control (SH-SY5Y neuronal cells [1]; [3]): 8% | degree of apoptosis relative to the staurosporine control (SH-SY5Y neuronal cells [1]; [4]): 75%

CN[C@@H]1C[C@H]2O[C@@](C)([C@@H]1OC)n1c3ccccc3c3c4c(c5c6ccccc6n2c5c31)C(=O)NC4 [staurosporine]
degree of apoptosis relative to the staurosporine control (SH-SY5Y neuronal cells [1]; staurosporine 0.1 μM alone (positive control, reference), FIG. 4b): 100% | apoptosis (caspase-3/7 luminescence) relative to staurosporine (SH-SY5Y neuronal cells [1]; staurosporine 0.5 μM alone (positive control, reference)): 100%

COc1ccc(C=CC(=O)Nc2ccccc2C)cc1OC [derivative B, 2-(3′,4′-dimethoxycinnamoylamino)-toluene]
differentiation of neural stem cells to neurons (relative induction of the class III β-tubulin gene promoter controlled luciferase signal) (neural stem cells): significantly stimulates the differentiation of neural stem cells to neurons in a dose dependent manner | degree of apoptosis relative to the staurosporine control (SH-SY5Y neuronal cells [1]; [3]): 7% | degree of apoptosis relative to the staurosporine control (SH-SY5Y neuronal cells [1]; [4]): 79%

COc1ccccc1NC(=O)C=Cc1ccc(OC)c(OC)c1 [derivative D, 2-(3′,4′-dimethoxycinnamoylamino)-anisole]
differentiation of neural stem cells to neurons (relative induction of the class III β-tubulin gene promoter controlled luciferase signal) (neural stem cells): significantly stimulates the differentiation of neural stem cells to neurons in a dose dependent manner | degree of apoptosis relative to the staurosporine control (SH-SY5Y neuronal cells [1]; [3]): 7% | degree of apoptosis relative to the staurosporine control (SH-SY5Y neuronal cells [1]; [4]): 80%

O=C(C=Cc1ccc2c(c1)OCO2)Nc1ccccc1C(=O)O [derivative A, N-(3′,4′-methylenedioxycinnamoyl)-anthranilic acid]
differentiation of neural stem cells to neurons (relative induction of the class III β-tubulin gene promoter controlled luciferase signal) (neural stem cells): significantly stimulates the differentiation of neural stem cells to neurons in a dose dependent manner | degree of apoptosis relative to the staurosporine control (SH-SY5Y neuronal cells [1]; [3]): 3% | degree of apoptosis relative to the staurosporine control (SH-SY5Y neuronal cells [1]; [4]): 27%
